Series [1] deals with MDA MB 435, SKOV3, SKOV3M6/6. The series can be described thus: cytotoxicity towards panel of human cell lines. As for the experimental part: (§1) Antimitotic compounds AAG1, AAG7, AAG12, AAG16, AAG20, and AAG26, Taxol®, and combrestastatinA4, were evaluated for cytotoxity towards the panel of human cell lines MDA MB 435 (human breast cancer), SKOV3 (human ovarian cancer), and SKOV3M6/6 (Pgp infected human ovarian cancer). […] The IC50 is the inhibitory concentration required to effectuate fifty percent inhibition of cell growth.

The subject of series [2] is A-10 rat smooth muscle cell line. As to the kind of experiment: microtubule depolymerization immunofluorescence assay. The series is classed as cell-based. The note with it: 24 h; 250 nM AAG1, 500 nM AAG7, 40 nM AAG16. As for the experimental part:
A-10 rat smooth muscle cells were used since they grow as flat monolayers that are amenable to imaging. The A-10 cells were treated for twenty four (24) hours (h) with EtOH (control), 250 nM (nanomolar) AAG1, 500 nM AAG7, or 40 nM AAG16, respectively. Microtubules were then visualized by indirect immunofluorescence staining with beta-tubulin antibodies. […] Each of the compounds AAG1, AAG7, and AAG16 has potent nanomolar tubulin inhibitory activity. Compounds of the present invention having the structural Formulas III and IV, as set forth herein, inhibit the microtubule dynamics. The inhibition of microtubule dynamics hinders microtubule formation and results in mitotic arrest and initiation of apoptosis or programmed cell death.

In series [3] the test system is MDA MB 435 human breast cancer. The series can be described thus: flow cytometric analysis of cell cycle phase distribution. The series is classed as cell-based. The settings on record: treatment for twenty four hours. Background: In flow cytometry, cells or beads pass a laser one at a time.
The test system of series [4] is SKOV3M6/6 (Pgp infected human ovarian cancer). As to the kind of experiment: cytotoxicity towards Pgp infected ovarian cancer cell line. The settings on record: for IC50: Homo sapiens; for calculated relative resistance value: SKOV3M6/6 versus SKOV3, FIG. 4. As to the method:
as §1

In a further series the test system is NCI 55 human tumor lines. As to the kind of experiment: NCI 55 human tumor lines in vitro screen. The series is classed as cell-based. The settings on record: all 55 tumor cell lines. From the text:
FIGS. 5a and 5b show the results of testing compound AAG1 of the present invention using National cancer Institute (NCl) 55 human tumor lines. The cells lines, which represent leukemia, non-small cell lung cancer, colon cancer, central nervous system cancer, melanoma, ovarian cancer, renal cancer, prostate cancer, and breast cancer, are listed in FIG. 5. Testing was in accordance with the NCI Developmental Therapeutics Program (DTP) In Vitro Cell Line Screening Project (IVCLSP). Methodology for testing under IVCLSP is provided at http://dtp.nci.gov/branches/btb/ivclsp.html.
GI50 is the concentration of chemical required to reduce the growth of treated cells to half that of untreated cells (i.e. control). GI50 represents the concentration of chemical required to effectuate fifty percent inhibition of cell growth.

In the next series the test system is A-10 cells. As to the kind of experiment: cell-based phenotypic screen of microtubule disrupting effects. The settings on record: read-out: EC50 in A-10 cells (Tubulin depolymerization inhibitory acitivity). Further details: species or system rat. As to the method:
(§2) However, the reverse orientation of methoxy and methylamino on the naphthyl, compound 11, has no microtubule depolymerization inhibitory activity up to 10 000 nM.

A further series has as its system Wild type HeLa. As to the kind of experiment: antiproliferative activity, isogenic HeLa pair, wild type. It counts as cell-based. The note with it: read-out: IC50 ± SD Wild type HeLa. The text has this: (§3) One mechanism of drug resistance that can lead to chemotherapy failure with tubulin targeting agents is the expression of the βIII isotype of tubulin.
The subject of series [5] is β-III Overexpressing HeLa. The series can be described thus: antiproliferative activity, isogenic HeLa pair, βIII tubulin. It counts as cell-based. The settings on record: for Rr: HeLa cell line pair, wild type and βIII tubulin; for IC50: read-out: IC50 ± SD β-III Overexpressing HeLa.
Description: as §3

Series [6] has as its system MDA-MB-435 tumor cell line. The series can be described thus: inhibition of proliferation, sulforhodamine B assay. The series is classed as cell-based. The note with it: read-out: IC50 ± SD (MDA-MB-435) Tumor cells. As for the experimental part: as §2
On the technique in general: The SRB assay estimates cell density from bound dye.

A further series deals with purified tubulin. The series can be described thus: inhibition of tubulin assembly. The series is classed as biochemical. The note with it: read-out: Inhibition of tubulin assembly IC50 ± SD. As to the method: The effects of designed compounds 10-14 on the polymerization of purified tubulin were evaluated. This allows for the study of the direct interaction of the compounds with their intracellular target. The ability of these compounds to bind to the colchicine site on tubulin was evaluated by measuring inhibition of [^3H]colchicine binding to tubulin. […] It is therefore likely that 13 binds in the colchicine site.

Series [7] has as its system colchicine site on tubulin. The series can be described thus: inhibition of [3H]colchicine binding to tubulin. The note with it: 1 μM inhibitor. As to the method: This allows for the study of the direct interaction of the compounds with their intracellular target. The ability of these compounds to bind to the colchicine site on tubulin was evaluated by measuring inhibition of [^3H]colchicine binding to tubulin.

The subject of a further series is tubulin. As to the kind of experiment: antitubulin activities. The note with it: for IC50: read-out: IC50 (antitubulin agent). The series is classed as cell-based. From the text: Compounds 1, 2 are cyclopenta pyrimidine compounds. Their antitubulin activities are set forth above. […] The structural differences between Compounds 1 and 2 lead to several pharmacological ramifications. Among them, the conformation of aniline rings maybe a pivotal factor that results in the affinity difference. In order to validate this, we set forth a preferred representative series of N-methyl-N-methoxynaphthyl cyclopenta[d]pyrimidin-4-amine (4) based on the high potent antibulin agent 3 (IC50=7.0 nM). All these preferred representative methoxynaphthyl substituted bicyclic compounds of this invention have the same function groups and molecular weight, similar Log D.

Where [8] appears, read: Homo sapiens, MDA-MB-435, MDA-MB-435.

Where a name gives a salt, the structure may show the parent alone. Read-outs that look alike come from different tables or passages of the source.

Consider `COc1ccc(N(C)c2nc(C)nc3c2CC(C)C3)cc1` (centres unmarked) (as salt: chloride) [AAG26, N-(4-Methoxyphenyl)-N,2,6-trimethyl-6,7-dihydro-5H-cyclopenta[d]pyrimidin-4-aminium chloride], for which the melting point (commonly the temperature, or range, at which the solid turns liquid) is 196 to 198 °C.
For `COc1ccc(N(C)c2nc(C)nc3oc(C)cc23)cc1` [AAG1, N-(4-methoxyphenyl)-N,2,6-trimethylfuro[2,3-d]pyrimidin-4-amine], the “cytotoxic activity toward each of the human cancer cell lines tested” value (“cytotoxic activity toward each” for short) in series [1] (MDA MB 435, SKOV3, SKOV3M6/6) is given as “have cytotoxic activity”. In [2], the “effect on microtubules (immunofluorescence, beta-tubulin antibodies)” value (from here on “effect on microtubules”) is given as “caused losses of microtubules”. Moreover, the “percentage of cells in the G2/M phases” value in series [3] is recorded as “increased approximately two-fold”. Further, in series [4], the midpoint of inhibition, the IC50, lay at 171 nM and the “calculated relative resistance value” is on record as 4.7. Also, the GI50 result with NCI 55 human tumor lines is listed as “single digit 10^−8 molar levels”.
For the compound `COc1ccc(N(C)c2nc(N)nc3c2CC(C)C3)cc1` (centres unmarked) [AAG7, N^4-(4-Methoxyphenyl)-N^4,6-dimethyl-6,7-dihydro-5H-cyclopenta[d]pyrimidine-2,4-diamine], in series [1] (MDA MB 435, SKOV3, SKOV3M6/6), the “cytotoxic activity toward each” value is listed as “have cytotoxic activity”. Further, the “effect on microtubules” value in series [2] is given as “caused losses of microtubules”.
`COc1ccc(N(C)c2ncnc3occ(C)c23)cc1` [AAG16, N-(4-methoxyphenyl)-N,5-dimethylfuro[2,3-d]pyrimidin-4-amine]: in [1] (MDA MB 435, SKOV3, SKOV3M6/6), the “cytotoxic activity toward each” value is recorded as “have cytotoxic activity”. Further, in series [2], the “effect on microtubules” value is listed as “caused losses of microtubules”. For the same compound, the “percentage of cells in the G2/M phases” value in [3] was “increased approximately two-fold”. Moreover, half-maximal inhibition in [4] (IC50) was put at 8.4 nM.
With `COc1ccc(N(C)c2nc(C)nc3[nH]ccc23)cc1` [AAG20, N-(4-methoxyphenyl)-N,2-dimethyl-7H-pyrrolo[2,3-d]pyrimidin-4-amine], the “cytotoxic activity toward each” value in series [1] (MDA MB 435, SKOV3, SKOV3M6/6) was “have cytotoxic activity”. For the same compound, in [3], the “percentage of cells in the G2/M phases” value is reported as “increased approximately two-fold”.
Take `COc1ccc(N(C)c2nc(C)nc3c2CC(C)C3)cc1` (centres unmarked) [AAG26, N-(4-Methoxyphenyl)-N,2,6-trimethyl-6,7-dihydro-5H-cyclopenta[d]pyrimidin-4-aminium chloride]: the “cytotoxic activity toward each” value in series [1] (MDA MB 435, SKOV3, SKOV3M6/6) is listed as “have cytotoxic activity”. Moreover, in series [4], half-maximal inhibition (IC50) was put at 3.2 nM.
As to `COc1ccc(/C=C\c2cc(OC)c(OC)c(OC)c2)cc1O` [CA4, combretastatin A-4, reference compound], the half-maximal effective concentration (EC50) (usually the concentration at which the effect is half-maximal) with A-10 cells (A-10 cells) is 13 nM. Moreover, the 50% inhibitory concentration (IC50) (in general, the concentration that inhibits the measured activity by half) in the series on Wild type HeLa came to 1.8 ± 0.4 nM; in [5] it was 2.5 ± 0.7 nM; in series [6] (MDA-MB-435), 3.4 ± 0.6 nM; in the series with purified tubulin it was […]. In addition, the Rr in series [5] came out at 0.72. The “Inhibition of colchicine binding % Inhibition ± SD” value in [7] amounted to 90 ± 0.2%.
Take `COc1ccc(Nc2nc(C)nc3c2CC(C)C3)cc1` (centres unmarked) [Compound 1]: the “antitubulin activity in words” value in the series on tubulin was “almost inactive”.
`COc1ccc(N(C)c2nc(C)nc3c2CC(C)C3)cc1` (centres unmarked) [Compound 2]: the IC50 with tubulin was 25.7 nM.
On to `COc1ccc(N(C)c2nc(C)nc3c2CCC3)cc1` [Compound 3], for which the IC50 with tubulin came out at 7 nM; in [6] (setting [8]) it was 7 ± 0.7 nM.
Consider `COc1ccc2c(N(C)c3ncnc4c3CCC4)cccc2c1` [Compound 10], for which, in the series with A-10 cells (Rattus norvegicus, A10), the EC50 is greater than 10000 nM.
In the case of `COc1ccc2c(N(C)c3nc(C)nc4c3CCC4)cccc2c1` [Compound 11, N,2-dimethyl-N-(6′-methoxynaphthyl-1′-amino)-cyclopenta[d]pyrimidin-4-amine], the concentration giving a half-maximal response (EC50) with A-10 cells (Rattus norvegicus, A10) is greater than 10000 nM. Also, the 50% inhibitory concentration (IC50) in the series on Wild type HeLa (Homo sapiens, HeLa) is greater than 10000 nM; in series [5] (Homo sapiens, HeLa), greater than 10000 nM.
In the case of `COc1cccc2cc(N(C)c3ncnc4c3CCC4)ccc12` [Compound 12], the IC50 in the series with Wild type HeLa (Homo sapiens, HeLa) is 15 nM; in [5] (Homo sapiens, HeLa), 14 ± 1 nM; in [6] (setting [8]), 33.7 ± 3.4 nM. The compound further gave a Rr in [5] of 1.07.
With `COc1cccc2cc(N(C)c3nc(C)nc4c3CCC4)ccc12` [Compound 13, N,2-dimethyl-N-(5′-methoxynaphthyl-2′-amino)-cyclopenta[d]pyrimidin-4-amine], the IC50 in the series on Wild type HeLa (Homo sapiens, HeLa) turned out to be 4 ± 1 nM; in series [5] (Homo sapiens, HeLa), 4 ± 1 nM; in series [6] (setting [8]), 10 nM; in series [6] (MDA-MB-435), 10.2 ± 0.46 nM. Besides, in series [5], the Rr is recorded as 1.0.
`COc1ccc(N(C)c2nc(C)nc3c2CCC3)c2ccccc12` [Compound 14]: in the series on A-10 cells (Rattus norvegicus, A10), the concentration for a half-maximal effect (EC50) is 500 ± 2.1 nM. The 50% inhibitory concentration (IC50) with Wild type HeLa (Homo sapiens, HeLa) came to 85 ± 5 nM; in series [5] (Homo sapiens, HeLa) it was 180 ± 40 nM; in series [6] (setting [8]), 234 ± 20 nM. Moreover, in series [5], the Rr is 0.47.
With `CC(=O)O[C@@]12CO[C@@H]1C[C@H](O)[C@@]1(C)C(=O)[C@H](O)C3=C(C)[C@@H](OC(=O)[C@H](O)[C@@H](NC(=O)OC(C)(C)C)c4ccccc4)C[C@@](O)([C@@H](OC(=O)c4ccccc4)[C@H]21)C3(C)C` [Docetaxel, docetaxel, reference compound], the IC50 with Wild type HeLa (Homo sapiens, HeLa) stood at 4 ± 2 nM; in series [5] (Homo sapiens, HeLa) it was 13 ± 4 nM. Besides, the Rr in series [5] worked out at 0.31.
Consider `CC(=O)O[C@H]1C(=O)[C@@]2(C)[C@H]([C@H](OC(=O)c3ccccc3)[C@]3(O)C[C@H](OC(=O)[C@H](O)[C@@H](NC(=O)c4ccccc4)c4ccccc4)C(C)=C1C3(C)C)[C@]1(OC(C)=O)CO[C@@H]1C[C@@H]2O` [Paclitaxel, paclitaxel, reference compound], for which the half-maximal inhibitory concentration (IC50) with Wild type HeLa (Homo sapiens, HeLa) was found to be 5.3 ± 2 nM; in series [5] (Homo sapiens, HeLa), 16 ± 1 nM; in [4] it was 4400 nM. In series [5], this compound gave a Rr of 0.33. Besides, in series [4], the “calculated relative resistance value” was 2013.
“N-(4-methoxy-phenyl)-6-methyl-5H-pyrrolo[3,2-d]pyrimidine-2,4-diamine [AAG12]”: the “cytotoxic activity toward each” value in series [1] is recorded as “have cytotoxic activity”. In addition, in series [3], the “percentage of cells in the G2/M phases” value is “increased approximately two-fold”.

These data come from patent publication US20140303188A1, “Substituted Cyclopenta Pyrimidine Bicyclic Compounds Having Antitmitotic And/Or Antitumor Activity And Methods Of Use Thereof” (DUQUESNE UNIVERSITY OF THE HOLY SPIRIT, priority 2008, published 2014).
